# Molecular target: human F508del CFTR (Homo sapiens (Human), UniProt P13569, DEL508-508)
# Assay: CFTR-YFP High Throughput Assay (YFP halide flux, FRT cells)
# Type: cell-based
# Details: EMax normalized to the positive control; FRT cells expressing human F508del CFTR and YFP; read-out: % Efficacy
# Procedure: Assays for Detecting and Measuring the Effect of Compounds on F508del-CFTR Channels CFTR-YFP Assay-CFTR Corrector Protocol:
# This protocol is designed to selectively screen small molecule compounds for F508del CFTR corrector activities in the YFP (yellow fluorescent protein) flux assay. In this protocol, the cells are incubated with testing compounds for 24 hours, washed with PBS, stimulated with forskolin and a standard potentiator, and fluorescence in each plate well is measured kinetically read on a 384-well plate reader, such as the Hamamatsu FDSS-6000.
# YFP fluorescence intensity values are acquired at high speed before and after iodide buffer is injected to the assay cells. Iodide enters the cells via active CFTR channels in the plasma membrane, and quenches the YFP fluorescence. The rate of fluorescence quenching is proportionate to the total CFTR activity in the cell membrane. F508del CFTR correctors increase the number of CFTR molecules in the testing cell plasma membrane, and thereby accelerate YFP quenching.
# This method was initially developed for bench top plate readers (Galietta, J, Jayaraman, S and Verkman, A S. Cell-based assay for high-throughput quantitative screening of CFTR chloride transport agonists. Am. J. Physiol. Cell Physiol. (2001), 281: C173), and was adapted to the HTS format (Sui J, Cotard S, Andersen J, Zhu P, Staunton J, Lee M, Lin S. Optimization of a Yellow fluorescent protein-based iodide influx high-throughput screening assay for cystic fibrosis transmembrane conductance regulator (CFTR) modulators. Assay Drug Dev Technol. (2010), 8: 656-668).
# Fisher Rat Thyroid (FRT) cells stably expressing both human F508del CFTR and a halide-sensitive yellow fluorescent protein (YFP-H148Q/I152L 25,22) (Galietta et al. Am. J. Physiol Cell Physiol 281(5), C1734, 2001) were cultured on plastic surface in Coon's modified Ham's F12 medium supplemented with FBS 10%, L-glutamine 2 mM, penicillin 100 U/ml, and streptomycin 100 μg/ml. G418 (0.75-1.0 mg/ml) and zeocin (3.2 ug/ml) were used for selection of FRT cells expressing F508del CFTR and YFP. For primary screening, FRT cells were plated into 384-well black wall, transparent bottom microtiter plates (Costar; Corning Inc.) at a cell density of 20,000-40,000 per well. Test compound was applied to the cells at varying concentrations ranging from 2 nM-40 μM in either a 2-fold or 3-fold dilution series. Cells were incubated in a cell culture incubator at 37° C. with 5% CO2 for 24-26 h. Assay plates were washed with DPBS media (Thermo, cat # SH30028.02) to remove unbound cells and compound. Stimulation media (25 μL) containing 20 μM Forskolin & 30 μM P3 [6-(Ethyl-phenyl-sulfonyl)-4-oxo-1,4-dihydro-quinoline-3-carboxylic acid 2-methoxy-benzylamide] in Hams F-12 coon's modified media was added to the plate wells and incubated at room temperature for 60-120 min. 25 μL of HEPES-PBS-I buffer (10 mM HEPES, 1 mM MgCl2, 3 mM KCl, 1 mM CaCl2, 150 mM NaI) was then added and fluorescence quench curves (Excitation 500 nm/Emission 540 nm; exposure 136 ms) were immediately recorded on an FDSS-6000 plate reader (Hamamatsu). Quench rates were derived from least squares fitting of the data as described by Sui et al (2010).
# CFTR-YFP Assay-CFTR Potentiator Protocol:
# This protocol is designed to selectively screen small molecule compounds for F508del CFTR potentiator activities in the YFP (yellow fluorescent protein) flux assay. Such compounds act acutely to stimulate CFTR already expressed on the membrane surface. In this protocol, the cells are incubated at 27° C. for 24 hours to homogeneously boost F508del CFTR expression in the cell membrane (low temperature correction), washed with PBS, treated with test compound, and CFTR activity is stimulated with forskolin for 1-2 hr. Measurement of ion flux is initiated by addition of iodide-containing buffer, and YFP quenching is kinetically recorded using a 384-well plate reader, such as the Hamamatsu FDSS-6000. […]
# human F508del CFTR, sequence (P13569 other isoform, or with tags, fused parts or gaps del F508-F508): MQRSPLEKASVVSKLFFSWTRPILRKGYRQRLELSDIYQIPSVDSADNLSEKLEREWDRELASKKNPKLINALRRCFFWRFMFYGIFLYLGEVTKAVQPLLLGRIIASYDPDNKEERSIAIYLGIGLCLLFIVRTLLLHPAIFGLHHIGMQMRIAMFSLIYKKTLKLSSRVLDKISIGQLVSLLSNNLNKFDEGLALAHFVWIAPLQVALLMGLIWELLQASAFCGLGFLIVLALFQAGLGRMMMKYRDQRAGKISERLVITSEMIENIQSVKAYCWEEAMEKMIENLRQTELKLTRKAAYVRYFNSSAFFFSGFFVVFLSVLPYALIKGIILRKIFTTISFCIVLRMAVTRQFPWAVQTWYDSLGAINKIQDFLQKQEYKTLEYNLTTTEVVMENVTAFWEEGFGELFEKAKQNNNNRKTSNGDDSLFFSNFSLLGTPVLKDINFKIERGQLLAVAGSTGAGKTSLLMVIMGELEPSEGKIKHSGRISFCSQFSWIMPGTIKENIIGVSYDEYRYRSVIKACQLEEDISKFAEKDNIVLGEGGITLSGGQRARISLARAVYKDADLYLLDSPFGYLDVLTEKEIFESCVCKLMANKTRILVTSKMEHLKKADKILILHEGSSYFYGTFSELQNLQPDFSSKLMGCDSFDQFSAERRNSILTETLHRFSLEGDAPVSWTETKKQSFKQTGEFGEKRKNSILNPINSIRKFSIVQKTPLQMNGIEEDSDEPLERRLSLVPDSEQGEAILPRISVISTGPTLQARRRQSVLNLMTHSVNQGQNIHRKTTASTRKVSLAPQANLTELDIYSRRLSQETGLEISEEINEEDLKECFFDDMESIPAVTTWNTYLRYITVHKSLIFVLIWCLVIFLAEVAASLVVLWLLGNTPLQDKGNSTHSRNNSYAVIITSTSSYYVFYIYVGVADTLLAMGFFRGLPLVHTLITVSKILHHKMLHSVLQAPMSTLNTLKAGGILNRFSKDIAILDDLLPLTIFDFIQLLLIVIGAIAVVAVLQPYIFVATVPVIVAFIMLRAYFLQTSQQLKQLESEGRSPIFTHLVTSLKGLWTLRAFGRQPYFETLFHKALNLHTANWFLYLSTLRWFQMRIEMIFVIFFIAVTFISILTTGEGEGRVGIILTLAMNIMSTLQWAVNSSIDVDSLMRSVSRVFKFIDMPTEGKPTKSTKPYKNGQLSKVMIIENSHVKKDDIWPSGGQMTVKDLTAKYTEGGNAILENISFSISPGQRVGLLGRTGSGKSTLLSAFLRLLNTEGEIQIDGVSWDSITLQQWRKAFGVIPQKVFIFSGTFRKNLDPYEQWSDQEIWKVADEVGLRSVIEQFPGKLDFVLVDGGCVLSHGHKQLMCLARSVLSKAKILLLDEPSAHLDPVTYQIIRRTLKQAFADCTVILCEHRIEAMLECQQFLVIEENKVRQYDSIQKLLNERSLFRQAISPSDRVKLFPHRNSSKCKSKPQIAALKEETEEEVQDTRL
row,SMILES,Emax [%]
1,"Cc1nc2ccc(N(C)C(=O)Cn3nc(-c4cccc(Cl)c4)c4ccccc4c3=O)cc2o1 [Example 1, 2-(4-(3-chlorophenyl)-1-oxophthalazin-2(1H)-yl)-N-methyl-N-(2-methylbenzo[d]oxazol-6-yl)acetamide]",> 80
2,"Cc1nc2ccc(N(C)C(=O)Cn3nc(-c4cccc(F)c4)c4ccccc4c3=O)cc2o1 [Example 2, 2-(4-(3-fluorophenyl)-1-oxophthalazin-2(1H)-yl)-N-methyl-N-(2-methylbenzo[d]oxazol-6-yl)acetamide]",30 to 80
3,"COc1ccc2c(-c3cccc(F)c3)nn(CC(=O)N(C)c3ccc4nc(C)oc4c3)c(=O)c2c1 [Example 3, 2-(4-(3-fluorophenyl)-7-methoxy-1-oxophthalazin-2(1H)-yl)-N-methyl-N-(2-methylbenzo[d]oxazol-6-yl)acetamide]",30 to 80
4,"COc1ccc2c(-c3cccc(Cl)c3)nn(CC(=O)N(C)c3ccc4nc(C)oc4c3)c(=O)c2c1 [Example 4, 2-(4-(3-chlorophenyl)-7-methoxy-1-oxophthalazin-2(1H)-yl)-N-methyl-N-(2-methylbenzo[d]oxazol-6-yl)acetamide]",> 80
5,"COc1ccc2c(-c3cccc(Cl)c3)nn(CC(=O)N(c3ccc4nc(C)oc4c3)C3CC3)c(=O)c2c1 [Example 5, 2-(4-(3-chlorophenyl)-7-methoxy-1-oxophthalazin-2(1H)-yl)-N-cyclopropyl-N-(2-methylbenzo[d]oxazol-6-yl)acetamide]",> 80
6,"[2H]C([2H])([2H])N(C(=O)Cn1nc(-c2cccc(Cl)c2)c2ccc(OC)cc2c1=O)c1ccc2nc(C)oc2c1 [Example 6, 2-(4-(3-chlorophenyl)-7-methoxy-1-oxophthalazin-2(1H)-yl)-N-(methyl-d3)-N-(2-methylbenzo[d]oxazol-6-yl)acetamide]",> 80
7,"[2H]C([2H])(C)N(C(=O)Cn1nc(-c2cccc(Cl)c2)c2ccc(OC)cc2c1=O)c1ccc2nc(C)oc2c1 [Example 7, 2-(4-(3-chlorophenyl)-7-methoxy-1-oxophthalazin-2(1H)-yl)-N-(ethyl-1,1-d2)-N-(2-methylbenzo[d]oxazol-6-yl)acetamide]",> 80
8,"CCN(C(=O)Cn1nc(-c2cccc(F)c2)c2ccc(OC)cc2c1=O)c1ccc2nc(C)oc2c1 [Example 8, N-ethyl-2-(4-(3-fluorophenyl)-7-methoxy-1-oxophthalazin-2(1H)-yl)-N-(2-methylbenzo[d]oxazol-6-yl)acetamide]",> 80
9,"CCN(C(=O)Cn1nc(-c2cccc(Cl)c2)c2ccc(OC)cc2c1=O)c1ccc2nc(C)oc2c1 [Example 9, 2-(4-(3-chlorophenyl)-7-methoxy-1-oxophthalazin-2(1H)-yl)-N-ethyl-N-(2-methylbenzoyl[d]oxazol-6-yl)acetamide]",> 80
10,"COc1cc2c(=O)n(CC(=O)N(C)c3ccc4nc(C)oc4c3)nc(-c3cccc(F)c3)c2cc1Cl [Example 10, 2-(6-chloro-4-(3-fluorophenyl)-7-methoxy-1-oxophthalazin-2(1H)-yl)-N-methyl-N-(2-methylbenzo[d]oxazol-6-yl)acetamide]",30 to 80
11,"COc1cc2c(=O)n(CC(=O)N(C)c3ccc4nc(C)oc4c3)nc(-c3cccc(Cl)c3)c2cc1Cl [Example 11, 2-(6-chloro-4-(3-chlorophenyl)-7-methoxy-1-oxophthalazin-2(1H)-yl)-N-methyl-(2-methylbenzo[d]oxazol-6-yl)acetamide]",> 80
12,"COc1ccc2c(-c3cccc(F)c3)nn(CC(=O)N(c3ccc4nc(C)oc4c3)C3CC3)c(=O)c2c1 [Example 12, N-cyclopropyl-2-(4-(3-fluorophenyl)-7-methoxy-1-oxophthalazin-2(1H)-yl)-N-(2-methylbenzo[d]oxazol-6-yl)acetamide]",> 80
13,"Cc1nc2ccc(N(C)C(=O)Cn3nc(-c4cccc(F)c4)c4ccc(O)cc4c3=O)cc2o1 [Example 13, 2-(4-(3-fluorophenyl)-7-hydroxy-1-oxophthalazin-2(1H)-yl)-N-methyl-N-(2-methylbenzo[d]oxazol-6-yl)acetamide]",> 80
14,"Cc1nc2ccc(N(C(=O)Cn3nc(-c4cccc(F)c4)c4ccc(O)cc4c3=O)C3CC3)cc2o1 [Example 14, N-cyclopropyl-2-(4-(3-fluorophenyl)-7-hydroxy-1-oxophthalazin-2(1H)-yl)-N-(2-methylbenzo[d]oxazol-6-yl)acetamide]",30 to 80
15,"Cc1nc2ccc(N(C(=O)Cn3nc(-c4cccc(Cl)c4)c4ccc(O)cc4c3=O)C3CC3)cc2o1 [Example 15, 2-(4-(3-chlorophenyl)-7-hydroxy-1-oxophthalazin-2(1H)-yl)-N-cyclopropyl-N-(2-methylbenzo[d]oxazol-6-yl)acetamide]",> 80
16,"Cc1nc2ccc(N(C)C(=O)Cn3nc(-c4cccc(Cl)c4)c4ccc(O)cc4c3=O)cc2o1 [Example 16, 2-(4-(3-chlorophenyl)-7-hydroxy-1-oxophthalazin-2(1H)-yl)-N-methyl-N-(2-methylbenzo[d]oxazol-6-yl)acetamide]",> 80
17,"CCOc1ccc2c(-c3cccc(F)c3)nn(CC(=O)N(C)c3ccc4nc(C)oc4c3)c(=O)c2c1 [Example 17, 2-(7-ethoxy-4-(3-fluorophenyl)-1-oxophthalazin-2(1H)-yl)-N-methyl-N-(2-methylbenzo[d]oxazol-6-yl)acetamide]",> 80
18,"CCOc1ccc2c(-c3cccc(Cl)c3)nn(CC(=O)N(c3ccc4nc(C)oc4c3)C3CC3)c(=O)c2c1 [Example 18, 2-(4-(3-chlorophenyl)-7-ethoxy-1-oxophthalazin-2(1H)-yl)-N-cyclopropyl-N-(2-methylbenzo[d]oxazol-6-yl)acetamide]",> 80
19,"CCOc1ccc2c(-c3cccc(Cl)c3)nn(CC(=O)N(C)c3ccc4nc(C)oc4c3)c(=O)c2c1 [Example 19, 2-(4-(3-chlorophenyl)-7-ethoxy-1-oxophthalazin-2(1H)-yl)-N-methyl-N-(2-methylbenzo[d]oxazol-6-yl)acetamide]",> 80
20,"[2H]C([2H])([2H])N(C(=O)Cn1nc(-c2cccc(Cl)c2)c2ccc(OC(C)C)cc2c1=O)c1ccc2nc(C)oc2c1 [Example 20, 2-(4-(3-chlorophenyl)-7-isopropoxy-1-oxophthalazin-2(1H)-yl)-N-(methyl-d3)-N-(2-methylbenzo[d]oxazol-6-yl)acetamide]",30 to 80
21,"CCOc1ccc2c(-c3cccc(F)c3)nn(CC(=O)N(c3ccc4nc(C)oc4c3)C3CC3)c(=O)c2c1 [Example 21, N-cyclopropyl-2-(7-ethoxy-4-(3-fluorophenyl)-1-oxophthalazin-2(1H)-yl)-N-(2-methylbenzo[d]oxazol-6-yl)acetamide]",> 80
22,"[2H]C([2H])([2H])N(C(=O)Cn1nc(-c2cccc(F)c2)c2ccc(OCC)cc2c1=O)c1ccc2nc(C)oc2c1 [Example 22, 2-(7-ethoxy-4-(3-fluorophenyl)-1-oxophthalazin-2(1H)-yl)-N-(methyl-d3)-N-(2-methylbenzo[d]oxazol-6-yl)acetamide]",> 80
23,"[2H]C([2H])([2H])N(C(=O)Cn1nc(-c2cccc(Cl)c2)c2ccc(OCC3CC3)cc2c1=O)c1ccc2nc(C)oc2c1 [Example 23, 2-(4-(3-chlorophenyl)-7-(cyclopropylmethoxy)-1-oxophthalazin-2(1H)-yl)-N-(methyl-d3)-N-(2-methylbenzo[d]oxazol-6-yl)acetamide]",30 to 80
24,"Cc1nc2ccc(N(C)C(=O)Cn3nc(-c4cccc(Cl)c4)c4ccc(OCC5CC5)cc4c3=O)cc2o1 [Example 24, 2-(4-(3-chlorophenyl)-7-(cyclopropylmethoxy)-1-oxophthalazin-2(1H)-yl)-N-methyl-N-(2-methylbenzo[d]oxazol-6-yl)acetamide]",> 80

# Source: US10280160B2, “Phthalazinone compounds and methods for the treatment of cystic fibrosis” (FLATLEY DISCOVERY LAB, LLC, priority 2013, dated 2019)
